# Experimental data published in ChEMBL document CHEMBL1765070, “Structure-based design of potent and selective 3-phosphoinositide-dependent kinase-1 (PDK1) inhibitors” (J Med Chem, 2011).
# Target: T1, 3-phosphoinositide-dependent protein kinase 1 (Homo sapiens, UniProt O15530)
# T1 sequence (O15530 whole entry): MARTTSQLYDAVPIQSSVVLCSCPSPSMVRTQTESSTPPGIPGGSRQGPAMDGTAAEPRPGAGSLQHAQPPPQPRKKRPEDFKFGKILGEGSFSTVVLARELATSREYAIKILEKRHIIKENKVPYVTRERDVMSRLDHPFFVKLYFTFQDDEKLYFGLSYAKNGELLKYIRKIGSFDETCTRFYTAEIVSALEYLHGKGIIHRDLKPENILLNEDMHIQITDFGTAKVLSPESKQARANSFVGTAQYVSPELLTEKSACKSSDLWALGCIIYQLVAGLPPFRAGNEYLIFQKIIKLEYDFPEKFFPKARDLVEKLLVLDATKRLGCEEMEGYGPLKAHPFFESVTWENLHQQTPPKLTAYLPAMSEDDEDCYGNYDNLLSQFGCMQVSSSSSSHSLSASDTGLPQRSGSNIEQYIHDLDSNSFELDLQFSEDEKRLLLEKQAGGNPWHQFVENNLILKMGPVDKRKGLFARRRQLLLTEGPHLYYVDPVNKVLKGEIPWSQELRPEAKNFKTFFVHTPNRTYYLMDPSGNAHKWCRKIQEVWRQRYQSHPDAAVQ
# Assay: Inhibition of PDK1
# Details: not given
row,Compound,IC50
1,CC(C)(C)OC(=O)N[C@H]1CCCN(c2cc(-c3ccc4c(N)n[nH]c4c3)nc(N)n2)C1,1 µM
2,CCNc1nccc(-c2ccc3c(N)n[nH]c3c2)n1,7.94 µM
3,Nc1nc(-c2ccc3c(N)n[nH]c3c2)cc(N2CCCCC2)n1,0.251 µM
4,Nc1nc(-c2ccc3c(N)n[nH]c3c2)cc(N2CCC[C@H](C(=O)NC3CCCCC3)C2)n1,0.0631 µM
5,CNc1nccc(-c2ccc3c(N)n[nH]c3c2)n1,1 µM
6,Nc1nc(-c2ccc3c(N)n[nH]c3c2)cc(N2CCCC(NC(=O)c3ccccc3)C2)n1 (racemic),0.0631 µM

# Further lines, results first:
row,IC50,Compound
1,0.251 µM,COc1cc(-c2ccc3c(N)n[nH]c3c2)nc(N)n1
2,0.251 µM,CC(C)c1cc(-c2ccc3c(N)n[nH]c3c2)nc(N)n1
3,0.398 µM,Nc1nccc(-c2ccc3c(N)n[nH]c3c2)n1
4,12.6 µM,COc1nccc(-c2ccc3c(N)n[nH]c3c2)n1
5,0.126 µM,C[C@@H]1CCCCN1c1cc(-c2ccc3c(N)n[nH]c3c2)nc(N)n1

# Target: Aurora kinase B (Homo sapiens, UniProt Q96GD4)
# Assay: Inhibition of aurora B
# Details: not given
# Chain of Aurora kinase B (Q96GD4 whole entry): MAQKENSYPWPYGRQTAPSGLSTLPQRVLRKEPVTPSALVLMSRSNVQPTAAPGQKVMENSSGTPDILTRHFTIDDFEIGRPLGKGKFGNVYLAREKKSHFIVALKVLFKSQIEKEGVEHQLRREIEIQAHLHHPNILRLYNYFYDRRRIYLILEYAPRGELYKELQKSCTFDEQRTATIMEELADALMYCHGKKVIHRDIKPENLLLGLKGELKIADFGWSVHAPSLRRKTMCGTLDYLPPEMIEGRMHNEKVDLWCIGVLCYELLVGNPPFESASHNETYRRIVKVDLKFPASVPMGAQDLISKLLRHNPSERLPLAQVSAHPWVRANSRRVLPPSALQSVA
row,Compound,IC50
1,CC(C)(C)OC(=O)N[C@H]1CCCN(c2cc(-c3ccc4c(N)n[nH]c4c3)nc(N)n2)C1,0.316 µM
2,Nc1nc(-c2ccc3c(N)n[nH]c3c2)cc(N2CCCCC2)n1,> 10 µM
3,Nc1nc(-c2ccc3c(N)n[nH]c3c2)cc(N2CCC[C@H](C(=O)NC3CCCCC3)C2)n1,3.98 µM
4,Nc1nc(-c2ccc3c(N)n[nH]c3c2)cc(N2CCCC(NC(=O)c3ccccc3)C2)n1 (racemic),0.0251 µM

# Continued, values first:
row,IC50,Compound
1,7.94 µM,COc1cc(-c2ccc3c(N)n[nH]c3c2)nc(N)n1
2,7.94 µM,CC(C)c1cc(-c2ccc3c(N)n[nH]c3c2)nc(N)n1
3,25.1 µM,C[C@@H]1CCCCN1c1cc(-c2ccc3c(N)n[nH]c3c2)nc(N)n1

# Target: Rho-associated protein kinase 1 (Homo sapiens, UniProt Q13464)
# Assay: Inhibition of ROCK1
# Details: not given
# Chain of Rho-associated protein kinase 1 (Q13464 whole entry): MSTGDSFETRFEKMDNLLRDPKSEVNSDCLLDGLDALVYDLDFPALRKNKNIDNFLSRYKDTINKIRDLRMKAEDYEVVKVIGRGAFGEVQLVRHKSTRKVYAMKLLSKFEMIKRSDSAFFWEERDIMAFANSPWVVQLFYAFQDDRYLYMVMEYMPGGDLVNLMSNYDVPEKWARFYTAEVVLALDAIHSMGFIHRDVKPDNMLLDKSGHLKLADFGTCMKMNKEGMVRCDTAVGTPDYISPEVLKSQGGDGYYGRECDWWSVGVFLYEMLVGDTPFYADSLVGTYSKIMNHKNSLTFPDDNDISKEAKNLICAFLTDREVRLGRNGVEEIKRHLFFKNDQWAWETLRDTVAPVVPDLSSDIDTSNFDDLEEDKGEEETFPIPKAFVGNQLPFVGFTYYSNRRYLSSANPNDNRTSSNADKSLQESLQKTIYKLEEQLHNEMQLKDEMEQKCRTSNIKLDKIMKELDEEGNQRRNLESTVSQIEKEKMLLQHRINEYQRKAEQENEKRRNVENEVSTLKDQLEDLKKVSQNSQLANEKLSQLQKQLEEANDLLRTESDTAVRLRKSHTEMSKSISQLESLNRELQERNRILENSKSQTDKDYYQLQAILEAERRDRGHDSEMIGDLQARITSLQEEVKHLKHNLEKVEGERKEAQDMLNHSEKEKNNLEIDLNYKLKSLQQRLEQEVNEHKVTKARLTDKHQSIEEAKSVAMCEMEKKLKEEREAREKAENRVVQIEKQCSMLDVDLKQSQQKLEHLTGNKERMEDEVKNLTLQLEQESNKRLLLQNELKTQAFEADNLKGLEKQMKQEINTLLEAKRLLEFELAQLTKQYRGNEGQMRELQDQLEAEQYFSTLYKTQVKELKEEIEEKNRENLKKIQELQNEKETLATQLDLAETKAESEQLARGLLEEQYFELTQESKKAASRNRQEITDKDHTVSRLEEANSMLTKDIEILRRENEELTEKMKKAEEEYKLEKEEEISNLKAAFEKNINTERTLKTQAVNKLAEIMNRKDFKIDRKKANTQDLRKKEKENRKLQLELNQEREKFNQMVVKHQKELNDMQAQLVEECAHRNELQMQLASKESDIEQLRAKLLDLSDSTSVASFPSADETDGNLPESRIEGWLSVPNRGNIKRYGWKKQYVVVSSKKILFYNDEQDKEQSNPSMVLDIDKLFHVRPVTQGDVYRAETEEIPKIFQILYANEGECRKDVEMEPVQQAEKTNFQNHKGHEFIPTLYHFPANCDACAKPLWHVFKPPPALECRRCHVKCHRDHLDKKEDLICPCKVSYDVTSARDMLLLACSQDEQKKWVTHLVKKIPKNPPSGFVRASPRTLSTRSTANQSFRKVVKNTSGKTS
row,Compound,IC50
1,CC(C)(C)OC(=O)N[C@H]1CCCN(c2cc(-c3ccc4c(N)n[nH]c4c3)nc(N)n2)C1,> 10 µM
2,Nc1nc(-c2ccc3c(N)n[nH]c3c2)cc(N2CCCCC2)n1,> 10 µM
3,Nc1nc(-c2ccc3c(N)n[nH]c3c2)cc(N2CCC[C@H](C(=O)NC3CCCCC3)C2)n1,5.01 µM
4,Nc1nc(-c2ccc3c(N)n[nH]c3c2)cc(N2CCCC(NC(=O)c3ccccc3)C2)n1 (racemic),> 10 µM

# Results, then the molecule that gave them:
row,IC50,Compound
1,5.01 µM,COc1cc(-c2ccc3c(N)n[nH]c3c2)nc(N)n1
2,> 10 µM,CC(C)c1cc(-c2ccc3c(N)n[nH]c3c2)nc(N)n1
3,1.58 µM,Nc1nccc(-c2ccc3c(N)n[nH]c3c2)n1
4,> 10 µM,C[C@@H]1CCCCN1c1cc(-c2ccc3c(N)n[nH]c3c2)nc(N)n1

# Target: T2, TGF-beta receptor type-1 (Homo sapiens, UniProt P36897)
# T2 sequence (P36897 whole entry): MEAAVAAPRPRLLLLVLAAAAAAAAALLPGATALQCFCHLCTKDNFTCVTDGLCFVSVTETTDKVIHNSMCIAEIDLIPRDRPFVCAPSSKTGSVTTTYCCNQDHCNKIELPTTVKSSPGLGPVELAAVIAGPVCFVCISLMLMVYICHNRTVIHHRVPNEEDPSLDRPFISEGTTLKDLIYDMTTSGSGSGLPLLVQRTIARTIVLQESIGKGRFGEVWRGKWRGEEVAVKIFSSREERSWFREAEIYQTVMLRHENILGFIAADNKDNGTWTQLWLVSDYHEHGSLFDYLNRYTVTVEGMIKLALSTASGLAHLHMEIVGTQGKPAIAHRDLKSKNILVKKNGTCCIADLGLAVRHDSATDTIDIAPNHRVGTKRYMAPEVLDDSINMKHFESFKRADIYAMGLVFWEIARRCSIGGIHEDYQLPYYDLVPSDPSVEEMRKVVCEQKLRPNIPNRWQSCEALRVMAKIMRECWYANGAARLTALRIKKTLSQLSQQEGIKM
# Assay: Inhibition of ALK5
# Details: read-out: pIC50 (converted)
row,Compound,IC50
1,CC(C)(C)OC(=O)N[C@H]1CCCN(c2cc(-c3ccc4c(N)n[nH]c4c3)nc(N)n2)C1,> 10 µM
2,Nc1nc(-c2ccc3c(N)n[nH]c3c2)cc(N2CCCCC2)n1,> 10 µM
3,Nc1nc(-c2ccc3c(N)n[nH]c3c2)cc(N2CCC[C@H](C(=O)NC3CCCCC3)C2)n1,> 10 µM
4,Nc1nc(-c2ccc3c(N)n[nH]c3c2)cc(N2CCCC(NC(=O)c3ccccc3)C2)n1 (racemic),> 10 µM

# Other lines, results leading:
row,IC50,Compound
1,3.16 µM,COc1cc(-c2ccc3c(N)n[nH]c3c2)nc(N)n1
2,2 µM,CC(C)c1cc(-c2ccc3c(N)n[nH]c3c2)nc(N)n1
3,1.58 µM,Nc1nccc(-c2ccc3c(N)n[nH]c3c2)n1
4,7.94 µM,C[C@@H]1CCCCN1c1cc(-c2ccc3c(N)n[nH]c3c2)nc(N)n1

# Target: T3, Aurora kinase A (Homo sapiens, UniProt O14965)
# T3 sequence (O14965 whole entry): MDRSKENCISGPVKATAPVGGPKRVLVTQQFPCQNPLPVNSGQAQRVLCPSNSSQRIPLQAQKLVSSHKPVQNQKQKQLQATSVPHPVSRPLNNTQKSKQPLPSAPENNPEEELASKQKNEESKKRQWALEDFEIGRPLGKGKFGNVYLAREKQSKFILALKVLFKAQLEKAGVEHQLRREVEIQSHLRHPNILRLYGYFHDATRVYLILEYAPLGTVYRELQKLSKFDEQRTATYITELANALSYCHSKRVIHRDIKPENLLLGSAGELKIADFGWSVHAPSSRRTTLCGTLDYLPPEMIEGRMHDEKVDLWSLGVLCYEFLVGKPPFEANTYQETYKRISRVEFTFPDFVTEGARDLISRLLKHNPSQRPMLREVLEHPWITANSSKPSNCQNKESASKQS
# Assay: Inhibition of aurora A
# Details: not given
row,Compound,IC50
1,CC(C)(C)OC(=O)N[C@H]1CCCN(c2cc(-c3ccc4c(N)n[nH]c4c3)nc(N)n2)C1,6.31 µM
2,Nc1nc(-c2ccc3c(N)n[nH]c3c2)cc(N2CCCCC2)n1,> 10 µM
3,Nc1nc(-c2ccc3c(N)n[nH]c3c2)cc(N2CCC[C@H](C(=O)NC3CCCCC3)C2)n1,> 10 µM
4,Nc1nc(-c2ccc3c(N)n[nH]c3c2)cc(N2CCCC(NC(=O)c3ccccc3)C2)n1 (racemic),1.26 µM

# Further lines, results first:
row,IC50,Compound
1,6.31 µM,COc1cc(-c2ccc3c(N)n[nH]c3c2)nc(N)n1
2,3.16 µM,CC(C)c1cc(-c2ccc3c(N)n[nH]c3c2)nc(N)n1
3,0.398 µM,Nc1nccc(-c2ccc3c(N)n[nH]c3c2)n1
4,> 10 µM,C[C@@H]1CCCCN1c1cc(-c2ccc3c(N)n[nH]c3c2)nc(N)n1
